Source: ChEMBL document CHEMBL4396932, “Rasagiline derivatives combined with histamine H3 receptor properties” (Bioorg Med Chem Lett, 2019)
pIC50, pKi: −log10 of the molar value.

Key:
[1] = molecular target: T1, Amine oxidase [flavin-containing] A (Homo sapiens, UniProt P21397); assay: Inhibition of human recombinant MAO-A using kynuramine as substrate by discontinuous fluorimetric analysis
T1 sequence (P21397 whole entry): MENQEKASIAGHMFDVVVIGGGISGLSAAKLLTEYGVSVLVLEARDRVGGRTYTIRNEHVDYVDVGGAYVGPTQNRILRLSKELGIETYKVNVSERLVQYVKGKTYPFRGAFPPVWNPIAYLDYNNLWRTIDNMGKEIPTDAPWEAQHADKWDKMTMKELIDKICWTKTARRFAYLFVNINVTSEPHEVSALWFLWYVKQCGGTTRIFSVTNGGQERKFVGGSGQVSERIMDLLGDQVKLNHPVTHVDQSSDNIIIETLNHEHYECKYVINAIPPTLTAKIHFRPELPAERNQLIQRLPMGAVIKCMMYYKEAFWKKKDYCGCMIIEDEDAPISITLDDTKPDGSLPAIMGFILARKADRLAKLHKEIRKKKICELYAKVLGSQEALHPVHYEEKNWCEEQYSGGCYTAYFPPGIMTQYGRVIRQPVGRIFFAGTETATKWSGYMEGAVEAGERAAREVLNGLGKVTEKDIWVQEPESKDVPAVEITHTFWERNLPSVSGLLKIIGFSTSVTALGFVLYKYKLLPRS

[2] = molecular target: Histamine H3 receptor (Homo sapiens, UniProt Q9Y5N1); assay: Displacement of [3H] N-alpha methylhistamine from human recombinant H3 receptor expressed in HEK293 cells incubated for 90 min; type: cell-based; settings: for pKi: read-out: Ki; for Ki: read-out: pKi (converted)
Chain of Histamine H3 receptor (Q9Y5N1 whole entry): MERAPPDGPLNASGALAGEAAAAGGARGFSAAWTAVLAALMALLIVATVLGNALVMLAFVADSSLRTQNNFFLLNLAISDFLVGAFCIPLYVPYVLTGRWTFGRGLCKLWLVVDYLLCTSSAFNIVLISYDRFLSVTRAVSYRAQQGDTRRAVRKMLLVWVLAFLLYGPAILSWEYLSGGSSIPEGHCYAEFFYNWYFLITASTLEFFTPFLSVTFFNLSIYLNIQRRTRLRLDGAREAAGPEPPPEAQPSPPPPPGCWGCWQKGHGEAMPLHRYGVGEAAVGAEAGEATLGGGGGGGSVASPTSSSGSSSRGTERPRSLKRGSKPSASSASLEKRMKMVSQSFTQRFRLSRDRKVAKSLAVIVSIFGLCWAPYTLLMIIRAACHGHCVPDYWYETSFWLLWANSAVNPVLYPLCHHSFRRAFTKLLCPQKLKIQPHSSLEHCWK

[3] = Cytotoxicity against human SH-SY5Y cells assessed as cell viability at 1 uM measured after 24 hrs by resazurin dye based fluorescence assay relative to control; settings: read-out: Activity
[4] = species: Homo sapiens; assay: Selectivity index, ratio of IC50 for human recombinant MAO-A using kynuramine as substrate preincubated for 60 mins followed by substrate addition to IC50 for human recombinant MAO-B using kynuramine as substrate preincubated for 60 mins followed by substrate addition
[5] = molecular target: T1, Amine oxidase [flavin-containing] A; assay: Inhibition of human recombinant MAO-A using kynuramine as substrate preincubated for 60 mins followed by substrate addition by discontinuous fluorimetric analysis
[6] = Cytotoxicity against human SH-SY5Y cells assessed as cell viability at 10 uM measured after 24 hrs by resazurin dye based fluorescence assay relative to control; settings: read-out: Activity
[7] = molecular target: Acetylcholinesterase (Electrophorus electricus) (UniProt O42275); assay: Inhibition of electric eel AChE at 10 uM using acetylthiocholine iodide as substrate preincubated for 30 mins followed by substrate addition and measured every 40 secs for 30 mins by Ellman's method relative to control
Chain of Acetylcholinesterase (Electrophorus electricus) (O42275 24-633 limits assumed): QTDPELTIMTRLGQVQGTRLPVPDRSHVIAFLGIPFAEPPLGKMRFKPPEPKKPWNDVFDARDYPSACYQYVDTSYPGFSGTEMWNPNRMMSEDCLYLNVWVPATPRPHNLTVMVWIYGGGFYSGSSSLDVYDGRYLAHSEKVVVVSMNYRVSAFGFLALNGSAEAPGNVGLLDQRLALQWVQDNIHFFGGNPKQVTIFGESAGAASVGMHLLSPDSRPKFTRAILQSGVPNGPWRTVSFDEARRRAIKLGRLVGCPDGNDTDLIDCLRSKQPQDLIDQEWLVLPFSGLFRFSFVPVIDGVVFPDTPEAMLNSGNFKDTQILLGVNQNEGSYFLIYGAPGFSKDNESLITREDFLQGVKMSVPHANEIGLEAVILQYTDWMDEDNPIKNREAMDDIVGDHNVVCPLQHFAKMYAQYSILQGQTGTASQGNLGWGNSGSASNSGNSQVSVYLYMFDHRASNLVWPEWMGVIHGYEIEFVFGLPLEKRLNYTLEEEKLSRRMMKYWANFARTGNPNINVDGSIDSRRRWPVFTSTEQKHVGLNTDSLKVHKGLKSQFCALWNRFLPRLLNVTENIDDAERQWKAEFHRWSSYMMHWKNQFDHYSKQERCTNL

[8] = molecular target: T2, Amine oxidase [flavin-containing] B (Homo sapiens, UniProt P27338); assay: Inhibition of human recombinant MAO-B using kynuramine as substrate preincubated for 60 mins followed by substrate addition by discontinuous fluorimetric analysis
T2 sequence (P27338 whole entry): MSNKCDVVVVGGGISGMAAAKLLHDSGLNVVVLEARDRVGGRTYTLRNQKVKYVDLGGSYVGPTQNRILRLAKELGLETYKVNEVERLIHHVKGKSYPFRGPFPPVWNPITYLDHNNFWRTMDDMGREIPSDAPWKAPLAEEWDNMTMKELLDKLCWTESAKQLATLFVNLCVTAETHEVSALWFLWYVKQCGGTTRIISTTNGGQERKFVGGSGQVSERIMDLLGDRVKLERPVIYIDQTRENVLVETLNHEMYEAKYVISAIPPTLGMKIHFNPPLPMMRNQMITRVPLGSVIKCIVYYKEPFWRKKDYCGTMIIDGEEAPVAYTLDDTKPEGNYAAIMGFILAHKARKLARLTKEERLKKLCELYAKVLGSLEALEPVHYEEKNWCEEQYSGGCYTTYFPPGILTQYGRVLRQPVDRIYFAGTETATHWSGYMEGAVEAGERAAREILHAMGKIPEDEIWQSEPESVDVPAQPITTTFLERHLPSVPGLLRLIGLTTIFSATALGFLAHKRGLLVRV

[9] = molecular target: T2, Amine oxidase [flavin-containing] B; assay: Inhibition of human recombinant MAO-B using kynuramine as substrate by discontinuous fluorimetric analysis
[10] = species: Homo sapiens; assay: Selectivity index, ratio of IC50 for human recombinant MAO-A to IC50 for human recombinant MAO-B using kynuramine as substrate
[11] = molecular target: Cholinesterase (Equus caballus) (UniProt P81908); assay: Inhibition of equine serum BuChE at 10 uM using acetylthiocholine iodide as substrate preincubated for 30 mins followed by substrate addition and measured every 40 secs for 30 mins by Ellman's method relative to control
Chain of Cholinesterase (Equus caballus) (P81908 whole entry): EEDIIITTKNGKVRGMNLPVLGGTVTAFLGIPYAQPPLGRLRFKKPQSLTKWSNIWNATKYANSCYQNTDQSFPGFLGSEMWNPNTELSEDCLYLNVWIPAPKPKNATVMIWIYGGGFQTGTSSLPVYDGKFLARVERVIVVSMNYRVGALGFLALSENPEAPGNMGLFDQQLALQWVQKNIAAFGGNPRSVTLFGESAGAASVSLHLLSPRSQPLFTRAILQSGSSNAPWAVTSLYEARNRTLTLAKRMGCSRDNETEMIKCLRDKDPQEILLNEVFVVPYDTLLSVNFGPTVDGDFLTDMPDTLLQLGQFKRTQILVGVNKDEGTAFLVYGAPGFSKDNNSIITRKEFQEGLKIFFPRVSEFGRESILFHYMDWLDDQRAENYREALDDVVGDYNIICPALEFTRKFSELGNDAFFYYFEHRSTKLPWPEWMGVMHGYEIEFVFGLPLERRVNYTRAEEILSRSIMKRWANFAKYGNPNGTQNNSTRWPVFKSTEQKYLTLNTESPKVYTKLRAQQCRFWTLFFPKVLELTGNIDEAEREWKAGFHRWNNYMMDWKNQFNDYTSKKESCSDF

[12] = molecular target: T3, Amine oxidase [flavin-containing] B (Rattus norvegicus, UniProt P19643); assay: Inhibition of rat brain MAO-B using [14C]-phenylethylamine as substrate preincubated for 60 mins followed by substrate addition and measured after 20 mins by liquid scintillation counting method
T3 sequence (P19643 whole entry): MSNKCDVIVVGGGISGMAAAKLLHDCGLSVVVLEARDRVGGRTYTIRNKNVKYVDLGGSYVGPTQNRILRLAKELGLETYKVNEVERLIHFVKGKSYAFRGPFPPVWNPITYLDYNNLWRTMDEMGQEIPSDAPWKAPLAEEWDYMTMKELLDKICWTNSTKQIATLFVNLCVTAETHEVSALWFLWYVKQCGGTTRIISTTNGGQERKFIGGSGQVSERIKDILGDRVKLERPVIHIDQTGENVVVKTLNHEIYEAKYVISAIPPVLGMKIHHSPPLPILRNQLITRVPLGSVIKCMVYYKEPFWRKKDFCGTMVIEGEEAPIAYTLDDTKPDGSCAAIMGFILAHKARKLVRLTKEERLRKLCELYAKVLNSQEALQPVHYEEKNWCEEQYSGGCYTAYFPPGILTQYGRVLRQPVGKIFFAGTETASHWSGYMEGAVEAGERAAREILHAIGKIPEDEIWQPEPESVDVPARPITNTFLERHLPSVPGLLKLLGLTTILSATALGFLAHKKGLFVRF

[13] = Cytotoxicity against human SH-SY5Y cells assessed as cell viability at 1 mM and measured after 24 hrs by resazurin dye based fluorescence assay relative to control; settings: read-out: Activity
[14] = molecular target: Histamine H4 receptor (Homo sapiens, UniProt Q9H3N8); assay: Displacement of [3H] histamine from human H4 histamine receptor
Chain of Histamine H4 receptor (Q9H3N8 whole entry): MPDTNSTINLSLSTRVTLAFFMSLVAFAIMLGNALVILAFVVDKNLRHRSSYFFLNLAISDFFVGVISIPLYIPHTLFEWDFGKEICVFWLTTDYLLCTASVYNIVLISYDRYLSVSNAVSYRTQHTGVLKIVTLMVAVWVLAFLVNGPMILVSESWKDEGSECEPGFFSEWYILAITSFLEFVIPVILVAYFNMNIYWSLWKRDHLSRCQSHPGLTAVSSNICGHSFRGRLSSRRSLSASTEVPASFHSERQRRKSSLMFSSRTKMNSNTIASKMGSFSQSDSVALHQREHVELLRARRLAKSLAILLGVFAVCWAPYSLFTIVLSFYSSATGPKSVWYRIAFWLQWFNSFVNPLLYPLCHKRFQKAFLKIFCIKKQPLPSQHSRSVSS

[15] = molecular target: Histamine H1 receptor (Homo sapiens, UniProt P35367); assay: Displacement of [3H] pyrilamine from human H1 histamine receptor
Chain of Histamine H1 receptor (P35367 whole entry): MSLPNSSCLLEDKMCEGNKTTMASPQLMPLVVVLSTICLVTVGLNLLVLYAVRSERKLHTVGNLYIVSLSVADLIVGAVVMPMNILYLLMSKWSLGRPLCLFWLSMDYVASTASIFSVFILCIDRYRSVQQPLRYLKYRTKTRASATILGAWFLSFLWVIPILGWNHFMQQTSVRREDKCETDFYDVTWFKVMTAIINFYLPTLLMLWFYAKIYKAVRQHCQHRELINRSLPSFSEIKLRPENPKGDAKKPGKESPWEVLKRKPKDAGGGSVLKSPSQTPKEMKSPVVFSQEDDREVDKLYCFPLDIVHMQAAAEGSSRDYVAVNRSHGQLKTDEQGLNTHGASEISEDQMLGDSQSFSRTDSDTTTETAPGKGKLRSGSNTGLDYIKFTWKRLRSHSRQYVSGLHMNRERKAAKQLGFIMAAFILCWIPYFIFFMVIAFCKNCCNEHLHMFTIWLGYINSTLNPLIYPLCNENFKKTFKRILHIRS

[16] = molecular target: D(2) dopamine receptor (Homo sapiens, UniProt P14416); assay: Displacement of [3H] spiperone from human D2 dopamine receptor
Chain of D(2) dopamine receptor (P14416 whole entry): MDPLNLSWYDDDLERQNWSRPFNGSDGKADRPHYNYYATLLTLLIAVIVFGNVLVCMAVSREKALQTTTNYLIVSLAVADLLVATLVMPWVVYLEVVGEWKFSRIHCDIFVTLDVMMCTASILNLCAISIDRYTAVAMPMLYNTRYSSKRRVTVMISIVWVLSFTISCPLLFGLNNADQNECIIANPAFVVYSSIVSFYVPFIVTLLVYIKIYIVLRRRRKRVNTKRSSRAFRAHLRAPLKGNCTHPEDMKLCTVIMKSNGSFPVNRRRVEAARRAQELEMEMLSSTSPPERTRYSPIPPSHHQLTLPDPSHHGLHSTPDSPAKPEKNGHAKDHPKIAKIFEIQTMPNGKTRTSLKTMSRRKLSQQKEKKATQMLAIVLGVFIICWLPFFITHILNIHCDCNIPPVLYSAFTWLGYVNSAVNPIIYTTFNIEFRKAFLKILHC

[17] = species: Homo sapiens; assay: Selectivity index, ratio of IC50 for human recombinant MAO-A using kynuramine as substrate preincubated for 30 mins followed by substrate addition to IC50 for human recombinant MAO-B using kynuramine as substrate preincubated for 30 mins followed by substrate addition
[18] = molecular target: T2, Amine oxidase [flavin-containing] B; assay: Irreversible inhibition of human recombinant MAO-B assessed as reduction in enzyme activity at 10 times IC50 using kynuramine as substrate preincubated with compound followed by substrate addition by discontinuous fluorimetric analysis; settings: TDE = time-dependent effect
[19] = molecular target: D(3) dopamine receptor (Homo sapiens, UniProt P35462); assay: Displacement of [3H] spiperone from human D3 dopamine receptor
Chain of D(3) dopamine receptor (P35462 whole entry): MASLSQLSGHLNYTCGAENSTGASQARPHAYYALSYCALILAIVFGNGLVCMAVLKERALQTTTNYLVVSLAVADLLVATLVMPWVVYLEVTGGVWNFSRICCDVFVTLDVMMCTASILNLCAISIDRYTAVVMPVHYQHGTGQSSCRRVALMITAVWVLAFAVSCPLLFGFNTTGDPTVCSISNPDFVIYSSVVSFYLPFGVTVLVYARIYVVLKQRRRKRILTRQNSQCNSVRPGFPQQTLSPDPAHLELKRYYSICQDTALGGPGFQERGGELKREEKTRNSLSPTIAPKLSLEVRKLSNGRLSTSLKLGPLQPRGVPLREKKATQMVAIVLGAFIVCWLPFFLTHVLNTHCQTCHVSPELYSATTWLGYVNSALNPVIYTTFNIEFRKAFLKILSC

[20] = molecular target: T2, Amine oxidase [flavin-containing] B; assay: Inhibition of human recombinant MAO-B using kynuramine as substrate preincubated for 30 mins followed by substrate addition by discontinuous fluorimetric analysis
[21] = molecular target: T1, Amine oxidase [flavin-containing] A; assay: Inhibition of human recombinant MAO-A using kynuramine as substrate preincubated for 30 mins followed by substrate addition by discontinuous fluorimetric analysis

| Compound | pIC50 [1] | pKi [2] | Ki [2] | viability at 24 h, 1 µM [3] | Ratio IC50 [4] | pIC50 [5] | viability at 24 h, 10 µM [6] | inhibition [7] | pIC50 [8] | pIC50 [9] | Ratio IC50 [10] | inhibition [11] | other results |
| --- | --- | --- | --- | --- | --- | --- | --- | --- | --- | --- | --- | --- | --- |
| C#CCNC1CCc2ccc(OCCCN3CCCCC3)cc21 (centres undefined) | < 4.00 | 8.17 | < 0.01 µM | 84% | > 4.8 | < 4.30 | 100% | 47% | 4.98 | 5.10 | > 13 | 47% |  |
| C#CCN[C@@H]1CCc2ccc(OC(=O)N(C)CC)cc21 [LADOSTIGIL] |  |  |  |  |  |  |  |  |  |  |  |  | pIC50 [12]: < 3.00 |
| C[n+]1ccc(-c2ccccc2)cc1 |  |  |  |  |  |  |  |  |  |  |  |  | viability at 24 h, 1000 µM [13]: 1.8% |
| C#CCNC1CCc2cc(OCCCN3CCCCC3)ccc21 (centres undefined) | < 4.00 | 8.59 | < 0.01 µM | 89.7% | > 39 | < 5.00 | 95.6% | 57% | 6.59 | 6.00 | > 100 | 32% | pKi [14]: < 4.00; pKi [15]: < 5.00; pKi [16]: < 5.00; Ratio IC50 [17]: > 95; inhibition (INH) [18]: Tde; pKi [19]: < 5.00; pIC50 [20]: 5.98; pIC50 [21]: < 4.00 |
